Measurements: patent US9670227B2, “Thienopyrimidine derivatives, a process for their preparation and pharmaceutical compositions containing them” (LES LABORATOIRES SERVIER, priority 2013, dated 2017)
Where two headings read alike, the source gives them in different places.

Experiments:
[1] = target: Mcl-1 protein (UniProtKB primary accession number: Q07820) (Homo sapiens, UniProt Q07820); assay: Inhibition of Mcl-1 by fluorescence polarisation, Method 1; type: binding; details: fluorescence polarisation; Method 1, or Method 2; read-out: IC50 (M) Mcl-1 FP
Chain of Mcl-1 protein (Q07820 whole entry): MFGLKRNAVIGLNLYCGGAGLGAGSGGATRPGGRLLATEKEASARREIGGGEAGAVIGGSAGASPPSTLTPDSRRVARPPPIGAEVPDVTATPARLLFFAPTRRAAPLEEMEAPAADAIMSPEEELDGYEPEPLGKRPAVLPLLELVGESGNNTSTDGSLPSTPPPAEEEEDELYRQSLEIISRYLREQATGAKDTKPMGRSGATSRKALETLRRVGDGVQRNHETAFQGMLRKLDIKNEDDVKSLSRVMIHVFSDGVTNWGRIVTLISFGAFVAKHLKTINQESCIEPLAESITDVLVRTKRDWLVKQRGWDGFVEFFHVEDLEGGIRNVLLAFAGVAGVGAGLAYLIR
Method in brief: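 An 11-point DMSO dilution of compound is mixed with buffer (10 mM HEPES, 150 mM NaCl, 0.05% Tween 20, pH 7.4) carrying 1 nM fluorescein-labelled ligand and 5 nM Mcl-1, final concentrations. Displacement is monitored by fluorescence polarisation.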

[2] = test system: H929 multiple myeloma tumour line; assay: In vitro cytotoxicity, Microculture Tetrazolium Assay; type: cell-based; details: H929 cells, 48 hours exposure, MTT, read-out: IC50 (μM) MTT H929
Method: The cytotoxicity studies were carried out on the H929 multiple myeloma tumour line.
The cells are distributed onto microplates and exposed to the test compounds for 48 hours.

Row | SMILES | IC50 [1] [M] | IC50 ([2]; Homo sapiens, NCI-H929, 48 h) [µM] | IC50 [2] [µM]
1 | Cc1c(-c2c(-c3ccc(OCC(F)(F)F)nc3)sc3ncnc(OC(Cc4ccccc4OCc4ccnn4CC(F)(F)F)C(=O)O)c23)ccc(OCCN2CCN(C)CC2)c1Cl [Example 695, (2R)-2-[((5Sa)-5-{3-chloro-2-methyl-4-[2-(4-methylpiperazin-1-yl)ethoxy]phenyl}-6-[6-(2,2,2-trifluoroethoxy)pyridin-3-yl]thieno[2,3-d]pyrimidin-4-yl)oxy]-3-(2-{[1-(2,2,2-trifluoroethyl)-1H-pyrazol-5-yl]methoxy}phenyl)propanoic acid] | 1.6e-08 | 0.268 | 
2 | COc1ccc(-c2sc3ncnc(OC(Cc4ccccc4OCc4ccnn4CC(F)(F)F)C(=O)O)c3c2-c2ccc(OCCN3CCN(C)CC3)c(Cl)c2C)cn1 [Example 696, (2R)-2-{[(5Sa)-5-{3-chloro-2-methyl-4-[2-(4-methylpiperazin-1-yl)ethoxy]phenyl}-6-(6-methoxypyridin-3-yl)thieno[2,3-d]pyrimidin-4-yl]oxy}-3-(2-{[1-(2,2,2-trifluoroethyl)-1H-pyrazol-5-yl]methoxy}phenyl)propanoic acid] | 9.6e-09 | 0.05 | 
3 | COc1nccc(COc2ccccc2CC(Oc2ncnc3sc(-c4cccc(F)c4F)c(-c4ccc(OCCN5CCN(C)CC5)c(Cl)c4C)c23)C(=O)O)n1 [Example 703, (2R)-2-{[(5Sa)-5-{3-chloro-2-methyl-4-[2-(4-methylpiperazin-1-yl)ethoxy]phenyl}-6-(2,3-difluorophenyl)thieno[2,3-d]pyrimidin-4-yl]oxy}-3-{2-[(2-methoxypyrimidin-4-yl)methoxy]phenyl}propanoic acid] | 9.3e-09 | 0.03 | 
4 | CCn1nccc1COc1ccccc1CC(Oc1ncnc2sc(-c3cccc(F)c3F)c(-c3ccc(OCCN4CCN(C)CC4)c(Cl)c3C)c12)C(=O)O [Example 704, (2R)-2-{[(5Sa)-5-{3-chloro-2-methyl-4-[2-(4-methylpiperazin-1-yl)ethoxy]phenyl}-6-(2,3-difluorophenyl)thieno[2,3-d]pyrimidin-4-yl]oxy}-3-{2-[(1-ethyl-1H-pyrazol-5-yl)methoxy]phenyl}propanoic acid] | 9.9e-09 | 0.025 | 
5 | Cc1c(-c2c(-c3cccc(F)c3F)sc3ncnc(OC(Cc4ccccc4OCc4ccnc(C(F)(F)F)n4)C(=O)O)c23)ccc(OCCN2CCN(C)CC2)c1Cl [Example 705, (2R)-2-{[(5Sa)-5-{3-chloro-2-methyl-4-[2-(4-methylpiperazin-1-yl)ethoxy]phenyl}-6-(2,3-difluorophenyl)thieno[2,3-d]pyrimidin-4-yl]oxy}-3-(2-{[2-(trifluoromethyl)pyrimidin-4-yl]methoxy}phenyl)propanoic acid] | 1.7e-08 | 0.02 | 
6 | COc1nccc(COc2ccccc2CC(Oc2ncnc3sc(-c4ccc(F)c(F)c4)c(-c4ccc(OCCN5CCN(C)CC5)c(Cl)c4C)c23)C(=O)O)n1 [Example 706, (2R)-2-{[(5Sa)-5-{3-chloro-2-methyl-4-[2-(4-methylpiperazin-1-yl)ethoxy]phenyl}-6-(3,4-difluorophenyl)thieno[2,3-d]pyrimidin-4-yl]oxy}-3-{2-[(2-methoxypyrimidin-4-yl)methoxy]phenyl}propanoic acid] | 3.6e-09 | 0.04 | 
7 | Cc1c(-c2c(-c3ccc(F)c(F)c3)sc3ncnc(OC(Cc4ccccc4OCc4ccnc(C(F)(F)F)n4)C(=O)O)c23)ccc(OCCN2CCN(C)CC2)c1Cl [Example 707, (2R)-2-{[(5Sa)-5-{3-chloro-2-methyl-4-[2-(4-methylpiperazin-1-yl)ethoxy]phenyl}-6-(3,4-difluorophenyl)thieno[2,3-d]pyrimidin-4-yl]oxy}-3-(2-{[2-(trifluoromethyl)pyrimidin-4-yl]methoxy}phenyl)propanoic acid] | 1.4e-08 | 0.042 | 
8 | CCn1nccc1COc1ccccc1CC(Oc1ncnc2sc(-c3ccc(F)c(F)c3)c(-c3ccc(OCCN4CCN(C)CC4)c(Cl)c3C)c12)C(=O)O [Example 708, (2R)-2-{[(5Sa)-5-{3-chloro-2-methyl-4-[2-(4-methylpiperazin-1-yl)ethoxy]phenyl}-6-(3,4-difluorophenyl)thieno[2,3-d]pyrimidin-4-yl]oxy}-3-{2-[(1-ethyl-1H-pyrazol-5-yl)methoxy]phenyl}propanoic acid] | 9.6e-09 | 0.055 | 
9 | Cc1c(-c2c(-c3cccc(F)c3)sc3ncnc(OC(Cc4ccccc4OC(C)C)C(=O)O)c23)ccc(OCCN2CCN(C)CC2)c1Cl [Example 709, (2R)-2-{[(5Sa)-5-{3-chloro-2-methyl-4-[2-(4-methylpiperazin-1-yl)ethoxy]phenyl}-6-(3-fluorophenyl)thieno[2,3-d]pyrimidin-4-yl]oxy}-3-[2-(propan-2-yloxy)phenyl]propanoic acid] | 3.2e-08 | 0.518 | 
10 | COc1ccc(COc2ccccc2CC(Oc2ncnc3sc(-c4cccc(F)c4)c(-c4ccc(OCCN5CCN(C)CC5)c(Cl)c4C)c23)C(=O)O)cc1 [Example 710, (2R)-2-{[(5Sa)-5-{3-chloro-2-methyl-4-[2-(4-methylpiperazin-1-yl)ethoxy]phenyl}-6-(3-fluorophenyl)thieno[2,3-d]pyrimidin-4-yl]oxy}-3-{2-[(4-methoxybenzyl)oxy]phenyl}propanoic acid] | 2.4e-09 | 0.384 | 
11 | Cc1c(-c2c(-c3cccc(F)c3)sc3ncnc(O[C@H](Cc4ccccc4O)C(=O)O)c23)ccc(OCCN2CCN(C)CC2)c1Cl [Example 711, (2R)-2-{[(5Sa)-5-{3-chloro-2-methyl-4-[2-(4-methylpiperazin-1-yl)ethoxy]phenyl}-6-(3-fluorophenyl)thieno[2,3-d]pyrimidin-4-yl]oxy}-3-(2-hydroxyphenyl)propanoic acid] | 3.7e-09 |  | 0.591
12 | COc1ccc(Cl)cc1CC(Oc1ncnc2sc(-c3ccc(Cl)o3)c(-c3ccc(OCCN4CCN(C)CC4)c(Cl)c3C)c12)C(=O)O [Example 714, (2R)-2-{[6-(5-chlorofuran-2-yl)-(5Sa)-5-{3-chloro-2-methyl-4-[2-(4-methylpiperazin-1-yl)ethoxy]phenyl}thieno[2,3-d]pyrimidin-4-yl]oxy}-3-(5-chloro-2-methoxyphenyl)propanoic acid] | 3.4e-08 | 0.188 | 
13 | COc1cc(F)ccc1CC(Oc1ncnc2sc(-c3ccc(Cl)o3)c(-c3ccc(OCCN4CCN(C)CC4)c(Cl)c3C)c12)C(=O)O [Example 718, (2R)-2-{[6-(5-chlorofuran-2-yl)-(5Sa)-5-{3-chloro-2-methyl-4-[2-(4-methylpiperazin-1-yl)ethoxy]phenyl}thieno[2,3-d]pyrimidin-4-yl]oxy}-3-(4-fluoro-2-methoxyphenyl)propanoic acid] | 1.2e-08 | 0.082 | 
14 | Cc1c(-c2c(-c3ccc(F)cc3)sc3ncnc(OC(Cc4ccccc4OCc4ccnc(-c5ccccc5OCc5ccccc5)n4)C(=O)O)c23)ccc(OCCN2CCN(C)CC2)c1Cl [Example 725, (2R)-3-[2-({2-[2-(benzyloxy)phenyl]pyrimidin-4-yl}methoxy)phenyl]-2-{[(5Sa)-5-{3-chloro-2-methyl-4-[2-(4-methylpiperazin-1-yl)ethoxy]phenyl}-6-(4-fluorophenyl)thieno[2,3-d]pyrimidin-4-yl]oxy}propanoic acid] | 1.46e-09 | 0.01 | 
15 | Cc1c(-c2c(-c3ccc(F)cc3)sc3ncnc(OC(Cc4ccccc4OCc4ccnc(-c5ccccc5C(F)(F)F)n4)C(=O)O)c23)ccc(OCCN2CCN(C)CC2)c1Cl [Example 727, (2R)-2-{[(5Sa)-5-{3-chloro-2-methyl-4-[2-(4-methylpiperazin-1-yl)ethoxy]phenyl}-6-(4-fluorophenyl)thieno[2,3-d]pyrimidin-4-yl]oxy}-3-[2-({2-[2-(trifluoromethyl)phenyl]pyrimidin-4-yl}methoxy)phenyl]propanoic acid] | 1.32e-09 | 0.013 | 
16 | COc1cnccc1-c1nccc(COc2ccccc2CC(Oc2ncnc3sc(-c4ccc(F)cc4)c(-c4ccc(OCCN5CCN(C)CC5)c(Cl)c4C)c23)C(=O)O)n1 [Example 730, (2R)-2-{[(5Sa)-5-{3-chloro-2-methyl-4-[2-(4-methylpiperazin-1-yl)ethoxy]phenyl}-6-(4-fluorophenyl)thieno[2,3-d]pyrimidin-4-yl]oxy}-3-(2-{[2-(3-methoxypyridin-4-yl)pyrimidin-4-yl]methoxy}phenyl)propanoic acid] | 9.48e-10 | 0.005 | 
17 | Cc1cc(-c2nccc(COc3ccccc3C[C@@H](Oc3ncnc4sc(-c5ccc(F)cc5)c(-c5ccc(OCCN6CCN(C)CC6)c(Cl)c5C)c34)C(=O)O)n2)cnc1C [Example 732, (2R)-2-{[(5Sa)-5-{3-chloro-2-methyl-4-[2-(4-methylpiperazin-1-yl)ethoxy]phenyl}-6-(4-fluorophenyl)thieno[2,3-d]pyrimidin-4-yl]oxy}-3-(2-{[2-(5,6-dimethylpyridin-3-yl)pyrimidin-4-yl]methoxy}phenyl)propanoic acid] | 1.27e-09 |  | 0.013
18 | COc1ccc(-c2nccc(COc3ccccc3CC(Oc3ncnc4sc(-c5ccc(F)cc5)c(-c5ccc(OCCN6CCN(C)CC6)c(Cl)c5C)c34)C(=O)O)n2)c(OC)c1 [Example 733, (2R)-2-{[(5Sa)-5-{3-chloro-2-methyl-4-[2-(4-methylpiperazin-1-yl)ethoxy]phenyl}-6-(4-fluorophenyl)thieno[2,3-d]pyrimidin-4-yl]oxy}-3-(2-{[2-(2,4-dimethoxyphenyl)pyrimidin-4-yl]methoxy}phenyl)propanoic acid] | 9.48e-10 | 0.005 | 
